We go through 17 compounds from ChEMBL document CHEMBL1909046, “DrugMatrix in vitro pharmacology data”.

SMILES strings stand for the structures.

The nature of assay [1]: DRUGMATRIX: Glutamate, Kainate radioligand binding (ligand: [3H] Kainic acid). It is filed as cell membranes, Rattus norvegicus, Wistar, Brain, Membrane. The conditions noted are these: Not Active = under 50% inhibition at 10 µM.
Assay [2] concerns the target Sodium-dependent dopamine transporter (Homo sapiens, UniProt Q01959). Description: DRUGMATRIX: Dopamine Transporter radioligand binding (ligand: [125I] RTI-55). The assay is classed as cell membranes, CHO-K1, Membrane. The conditions noted are these: Not Active = under 50% inhibition at 10 µM.
Assay [3] can be described thus: DRUGMATRIX: Leukotriene, BLT (LTB4) radioligand binding (ligand: [3H]LTB4). The assay is classed as cell membranes, Membrane. The conditions noted are these: u-937; Not Active = under 50% inhibition at 10 µM.
For assay [4], the target named is Receptor tyrosine-protein kinase erbB-2 (Homo sapiens, UniProt P04626). Description: biochemical. The assay is classed as cell-based, Insect cells. The following applies: insect cells.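 Also: inhibition of HER2 kinase enzyme activity, measured with Poly(Glu:Tyr) as the phosphorylation substrate; in other assays of this panel Not Active means under 50% inhibition at 10 µM.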
The target of the next assay is T1, Cathepsin G (Homo sapiens, UniProt P08311).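 Also: inhibition of Cathepsin G enzyme activity, tested on an AMC-conjugated peptide substrate; in other assays of this panel Not Active means under 50% inhibition at 10 µM.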
T1 sequence (P08311 whole entry): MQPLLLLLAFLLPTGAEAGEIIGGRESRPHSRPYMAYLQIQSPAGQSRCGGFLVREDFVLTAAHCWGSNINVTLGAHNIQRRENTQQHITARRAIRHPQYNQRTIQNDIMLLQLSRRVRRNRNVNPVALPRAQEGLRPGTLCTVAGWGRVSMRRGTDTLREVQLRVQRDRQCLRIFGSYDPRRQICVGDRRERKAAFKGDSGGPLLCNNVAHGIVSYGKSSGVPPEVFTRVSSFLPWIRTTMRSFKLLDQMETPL
It is filed as tissue-based. The following applies: neutrophil.

Assay [5] deals with Kappa-type opioid receptor (Homo sapiens, UniProt P41145). The assay can be described thus: DRUGMATRIX: Opiate kappa (OP2, KOP) radioligand binding (ligand: [3H] Diprenorphine). The assay is classed as cell membranes, HEK293, Membrane. The following applies: Not Active = under 50% inhibition at 10 µM.
Assay [6] concerns the target T2, Cholecystokinin receptor type A (Homo sapiens, UniProt P32238). Also: in other assays of this panel Not Active means under 50% inhibition at 10 µM.
T2 sequence (P32238 whole entry): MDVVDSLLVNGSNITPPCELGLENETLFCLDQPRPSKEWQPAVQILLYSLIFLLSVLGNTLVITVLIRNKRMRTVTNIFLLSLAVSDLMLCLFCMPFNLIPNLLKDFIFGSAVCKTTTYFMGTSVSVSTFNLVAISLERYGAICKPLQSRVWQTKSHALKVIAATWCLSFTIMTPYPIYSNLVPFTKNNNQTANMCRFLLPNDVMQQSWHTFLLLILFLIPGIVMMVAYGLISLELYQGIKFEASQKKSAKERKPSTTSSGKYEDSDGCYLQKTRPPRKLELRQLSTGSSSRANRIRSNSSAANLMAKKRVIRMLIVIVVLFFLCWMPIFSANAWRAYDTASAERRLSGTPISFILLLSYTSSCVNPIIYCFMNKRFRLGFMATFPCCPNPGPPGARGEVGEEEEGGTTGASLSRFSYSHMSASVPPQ
The assay is classed as cell membranes, Membrane. The following applies: 1321-n1.

Chain of Kappa-type opioid receptor (P41145 whole entry): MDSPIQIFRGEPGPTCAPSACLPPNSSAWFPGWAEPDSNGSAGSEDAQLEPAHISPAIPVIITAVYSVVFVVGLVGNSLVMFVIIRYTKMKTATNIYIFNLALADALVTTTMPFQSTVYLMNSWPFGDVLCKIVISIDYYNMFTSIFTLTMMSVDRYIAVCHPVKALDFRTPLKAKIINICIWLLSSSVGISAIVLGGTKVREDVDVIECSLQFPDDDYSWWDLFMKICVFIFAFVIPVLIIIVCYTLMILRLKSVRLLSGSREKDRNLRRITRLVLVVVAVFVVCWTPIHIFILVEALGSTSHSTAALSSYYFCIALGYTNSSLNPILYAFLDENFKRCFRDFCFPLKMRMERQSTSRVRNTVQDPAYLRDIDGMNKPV
Chain of Sodium-dependent dopamine transporter (Q01959 whole entry): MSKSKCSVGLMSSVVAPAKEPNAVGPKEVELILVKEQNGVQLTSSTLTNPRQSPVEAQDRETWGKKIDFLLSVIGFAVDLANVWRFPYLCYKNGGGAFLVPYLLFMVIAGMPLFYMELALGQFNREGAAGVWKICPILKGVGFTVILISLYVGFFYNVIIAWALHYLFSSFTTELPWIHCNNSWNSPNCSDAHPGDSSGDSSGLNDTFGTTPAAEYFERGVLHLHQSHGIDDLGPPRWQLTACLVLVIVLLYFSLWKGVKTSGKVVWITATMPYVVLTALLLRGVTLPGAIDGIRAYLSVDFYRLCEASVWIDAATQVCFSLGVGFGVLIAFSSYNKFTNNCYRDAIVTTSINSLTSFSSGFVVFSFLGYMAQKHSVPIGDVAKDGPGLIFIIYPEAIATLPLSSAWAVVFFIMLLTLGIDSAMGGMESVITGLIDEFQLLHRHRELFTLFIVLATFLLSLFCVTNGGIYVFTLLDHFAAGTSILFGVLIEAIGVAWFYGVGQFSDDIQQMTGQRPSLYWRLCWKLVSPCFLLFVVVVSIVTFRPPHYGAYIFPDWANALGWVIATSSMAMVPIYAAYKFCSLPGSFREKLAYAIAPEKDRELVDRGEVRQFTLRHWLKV
Chain of Receptor tyrosine-protein kinase erbB-2 (P04626 whole entry): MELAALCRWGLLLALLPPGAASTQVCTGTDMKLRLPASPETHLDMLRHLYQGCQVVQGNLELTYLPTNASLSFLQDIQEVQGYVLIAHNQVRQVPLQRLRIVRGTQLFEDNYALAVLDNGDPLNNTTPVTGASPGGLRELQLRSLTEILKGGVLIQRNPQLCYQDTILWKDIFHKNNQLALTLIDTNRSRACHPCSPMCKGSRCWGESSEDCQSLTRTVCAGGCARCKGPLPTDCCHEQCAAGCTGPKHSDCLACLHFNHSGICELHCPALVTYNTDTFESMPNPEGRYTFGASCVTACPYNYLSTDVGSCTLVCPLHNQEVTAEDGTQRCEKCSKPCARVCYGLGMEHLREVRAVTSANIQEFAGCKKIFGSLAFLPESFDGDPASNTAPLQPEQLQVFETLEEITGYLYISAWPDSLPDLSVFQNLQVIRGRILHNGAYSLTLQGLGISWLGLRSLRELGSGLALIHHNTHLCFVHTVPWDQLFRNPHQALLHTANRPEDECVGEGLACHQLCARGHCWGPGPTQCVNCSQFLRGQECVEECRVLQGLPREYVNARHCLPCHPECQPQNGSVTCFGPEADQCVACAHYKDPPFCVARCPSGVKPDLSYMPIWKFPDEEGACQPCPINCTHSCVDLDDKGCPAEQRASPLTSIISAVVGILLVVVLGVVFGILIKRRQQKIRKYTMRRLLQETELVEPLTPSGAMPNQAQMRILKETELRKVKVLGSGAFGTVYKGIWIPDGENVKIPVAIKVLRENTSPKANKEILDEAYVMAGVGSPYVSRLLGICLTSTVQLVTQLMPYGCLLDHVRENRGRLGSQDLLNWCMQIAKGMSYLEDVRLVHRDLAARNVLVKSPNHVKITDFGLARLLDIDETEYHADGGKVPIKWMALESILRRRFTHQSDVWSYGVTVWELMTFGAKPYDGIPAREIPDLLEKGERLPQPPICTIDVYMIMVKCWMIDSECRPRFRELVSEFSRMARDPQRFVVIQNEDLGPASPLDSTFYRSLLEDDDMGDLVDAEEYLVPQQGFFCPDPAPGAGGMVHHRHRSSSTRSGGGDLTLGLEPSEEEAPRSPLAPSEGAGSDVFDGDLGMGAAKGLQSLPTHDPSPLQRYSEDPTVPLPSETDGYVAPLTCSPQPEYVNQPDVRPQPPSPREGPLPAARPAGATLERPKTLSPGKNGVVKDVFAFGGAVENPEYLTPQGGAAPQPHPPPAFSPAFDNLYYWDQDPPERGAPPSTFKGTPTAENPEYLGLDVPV

One may read the IC50 as the point on the concentration scale where inhibition reaches its midpoint. As usually defined, the Ki is a dissociation constant, usually derived from enzyme kinetics or from competition with a known ligand. `Cn1c(=O)c2[nH]cnc2n(C)c1=O.Cn1c(=O)c2[nH]cnc2n(C)c1=O.NCCN` [AMINOPHYLLINE]: the IC50 result (in assay [1]; in assay [2] (cho-k1); in assay [3]; in assay [4]; against Cathepsin G; in assay [5] (hek293)) was “Not Active” throughout. Further, the IC50 result in assay [6] is “Not Active”. The inhibition constant (Ki) entry in assay [1] and in assay [3] was “Not Active” throughout.

Consider `CCC1(CCC(C)C)C(=O)NC(=O)NC1=O` [AMOBARBITAL], for which the concentration for half-maximal inhibition (IC50) entry (in assay [1]; in assay [2] (cho-k1); in assay [3]; in assay [4]; against Cathepsin G; in assay [5] (hek293)) was “Not Active” throughout. The concentration for half-maximal inhibition (IC50) result in assay [6] is “Not Active”. Moreover, the inhibition constant (Ki) entry in assay [1] and in assay [3] was “Not Active” each time.

Consider `CC(=O)Oc1ccc(C(c2ccc(OC(C)=O)cc2)c2ccccn2)cc1` [BISACODYL], for which the IC50 entry is “Not Active” in assay [1]; “Not Active” in assay [3]; “Not Active” in assay [4]; “Not Active” against Cathepsin G; 2.44 µM in assay [5] (read-out: IC50); “Not Active” in assay [6]. Besides, the Ki entry in assay [1] is “Not Active”; in assay [3], “Not Active”; in assay [5], 0.975 µM.

With `CN/C(=N\CCSCc1nc[nH]c1C)NC#N` [CIMETIDINE], the half-maximal inhibitory concentration (IC50) result (in assay [1]; in assay [2] (cho-k1); in assay [3]; in assay [4]; against Cathepsin G; in assay [5] (hek293)) was “Not Active” each time. In assay [6], the IC50 result was “Not Active”. Also, the Ki result in assay [1] and in assay [3] was “Not Active” throughout.

With `CCC(=O)O[C@]1(C(=O)CCl)[C@@H](C)C[C@H]2[C@@H]3CCC4=CC(=O)C=C[C@]4(C)[C@@]3(F)[C@@H](O)C[C@@]21C` [CLOBETASOL PROPIONATE], the IC50 entry (in assay [1]; in assay [2] (cho-k1); in assay [3]; in assay [4]; on Cathepsin G; in assay [5] (hek293)) was “Not Active” throughout. In addition, the IC50 result in assay [6] is “Not Active”. In addition, the Ki result in assay [1] and in assay [3] was “Not Active” in each case.

Regarding `C[C@@H]1C[C@H]2[C@@H]3CCC4=CC(=O)C=C[C@]4(C)[C@@]3(F)[C@@H](O)C[C@]2(C)[C@H]1C(=O)CO` [DESOXIMETASONE], the half-inhibitory concentration (IC50) result (in assay [1]; in assay [2] (cho-k1); in assay [3]; in assay [4]; against Cathepsin G; in assay [5] (hek293)) was “Not Active” in each case. Besides, in assay [6], the 50% inhibitory concentration (IC50) entry was “Not Active”. Further, the Ki entry in assay [1] and in assay [3] was “Not Active” each time.

Turning to `C[C@@H]1C[C@H]2[C@@H]3CCC4=CC(=O)C=C[C@]4(C)[C@@]3(F)[C@@H](O)C[C@]2(C)[C@@]1(O)C(=O)CO` [DEXAMETHASONE], the IC50 result (in assay [1]; in assay [2] (cho-k1); in assay [3]; in assay [4]; against Cathepsin G; in assay [5] (hek293)) was “Not Active” in each case. Also, the 50% inhibitory concentration (IC50) result in assay [6] is “Not Active”. Also, the inhibition constant (Ki) result in assay [1] and in assay [3] was “Not Active” in each case.

Consider `OC(CCCN1CCCCC1)(c1ccccc1)c1ccccc1` [DIPHENIDOL], for which the half-inhibitory concentration (IC50) result (in assay [1]; in assay [2] (cho-k1); in assay [3]; in assay [4]; on Cathepsin G; in assay [5] (hek293)) was “Not Active” each time. Moreover, the IC50 result in assay [6] is “Not Active”. The Ki entry in assay [1] and in assay [3] was “Not Active” each time.

For `COc1cc([C@@H]2c3cc4c(cc3[C@@H](O[C@@H]3O[C@@H]5CO[C@@H](C)O[C@H]5[C@H](O)[C@H]3O)[C@H]3COC(=O)[C@H]23)OCO4)cc(OC)c1O` [ETOPOSIDE], the 50% inhibitory concentration (IC50) result (in assay [1]; in assay [2] (cho-k1); in assay [3]; in assay [4]; against Cathepsin G; in assay [5] (hek293)) was “Not Active” throughout. In addition, in assay [6], the IC50 entry was “Not Active”. The Ki entry in assay [1] and in assay [3] was “Not Active” in each case.

On to `C=CCc1ccc(O)c(OC)c1` [EUGENOL], for which the concentration for half-maximal inhibition (IC50) entry (in assay [1]; in assay [2] (cho-k1); in assay [3]; in assay [4]; against Cathepsin G; in assay [5] (hek293)) was “Not Active” throughout. For the same compound, the 50% inhibitory concentration (IC50) entry in assay [6] is “Not Active”. Besides, the inhibitory constant (Ki) result in assay [1] and in assay [3] was “Not Active” each time.

`CC(C(=O)O)c1cccc(Oc2ccccc2)c1` (configuration not stated) [FENOPROFEN]: the IC50 entry (in assay [1]; in assay [2] (cho-k1); in assay [3]; in assay [4]; on Cathepsin G; in assay [5] (hek293)) was “Not Active” each time. Further, the IC50 entry in assay [6] is “Not Active”. The inhibition constant Ki result in assay [1] and in assay [3] was “Not Active” throughout.

For the compound `CC(=O)[C@@]1(O)CC[C@H]2[C@@H]3CCC4=CC(=O)CC[C@]4(C)[C@H]3CC[C@@]21C` [HYDROXYPROGESTERONE], the IC50 result in assay [1] is “Not Active”; in assay [2] (read-out: IC50), 6.91 µM; in assay [3], “Not Active”; in assay [4], “Not Active”; at Cathepsin G, “Not Active”; in assay [5] (hek293), “Not Active”. In assay [6], the IC50 entry was “Not Active”. The figures for the Ki entry in assay [1], in assay [2] (read-out: Ki) and in assay [3] were “Not Active”, 5.49 µM and “Not Active”, respectively.

In the case of `C#CC1(O)CC[C@H]2[C@@H]3CCC4=CC(=O)CC[C@@H]4[C@H]3CC[C@@]21CC` (some centres not stated) [NORGESTREL], the IC50 result (in assay [1]; in assay [2] (cho-k1); in assay [3]; in assay [4]; at Cathepsin G; in assay [5] (hek293)) was “Not Active” each time. For the same compound, in assay [6], the IC50 result is on record as “Not Active”. Moreover, the Ki entry in assay [1] and in assay [3] was “Not Active” throughout.

As to `C[C@]12C=CC(=O)C=C1CC[C@@H]1[C@@H]2[C@@H](O)C[C@@]2(C)[C@H]1CC[C@]2(O)C(=O)CO` [PREDNISOLONE], the IC50 entry (in assay [1]; in assay [2] (cho-k1); in assay [3]; in assay [4]; at Cathepsin G; in assay [5] (hek293)) was “Not Active” throughout. The half-maximal inhibitory concentration (IC50) result in assay [6] is on record as “Not Active”. The Ki result in assay [1] and in assay [3] was “Not Active” each time.

With `CC(=O)[C@H]1[C@H](C#N)C[C@H]2[C@@H]3CC=C4C[C@@H](O)CC[C@]4(C)[C@H]3CC[C@@]21C` [PREGNENOLONE CARBONITRILE], the half-maximal inhibitory concentration (IC50) result (in assay [1]; in assay [2] (cho-k1); in assay [3]; in assay [4]; at Cathepsin G; in assay [5] (hek293)) was “Not Active” each time. In assay [6], the IC50 result is reported as “Not Active”. For the same compound, the Ki entry in assay [1] and in assay [3] was “Not Active” each time.

Consider `CCCNCC(O)COc1ccccc1C(=O)CCc1ccccc1` (configuration not stated) [PROPAFENONE], for which the IC50 result (in assay [1]; in assay [3]; in assay [4]; at Cathepsin G; in assay [5] (hek293); in assay [6]) was “Not Active” each time. Also, the inhibition constant Ki result in assay [1] and in assay [3] was “Not Active” in each case.

Take `CC(C)c1cccc(C(C)C)c1O` [PROPOFOL]: the IC50 result (in assay [1]; in assay [2] (cho-k1); in assay [3]; in assay [4]; against Cathepsin G; in assay [6]) was “Not Active” throughout. Moreover, the Ki result in assay [1] and in assay [3] was “Not Active” each time.
